One may read the IC50 as the concentration needed to halve the response being measured.

Where a name gives a salt, the structure may show the parent alone. Where only a bound is given, the exact number is not on record here.

The target of one assay is CCR8 (Homo sapiens, UniProt P51685). Kind of assay: Tango assay (Tango-CCR8-Gal4-CHO-K1 cells, CCL1-stimulated, ONE-Glo luminescence). The note with it: Tango Assay IC50, Inhibition of CCR8 Tango cell in vitro.
CCR8, sequence (P51685 whole entry, the tested form may be a part): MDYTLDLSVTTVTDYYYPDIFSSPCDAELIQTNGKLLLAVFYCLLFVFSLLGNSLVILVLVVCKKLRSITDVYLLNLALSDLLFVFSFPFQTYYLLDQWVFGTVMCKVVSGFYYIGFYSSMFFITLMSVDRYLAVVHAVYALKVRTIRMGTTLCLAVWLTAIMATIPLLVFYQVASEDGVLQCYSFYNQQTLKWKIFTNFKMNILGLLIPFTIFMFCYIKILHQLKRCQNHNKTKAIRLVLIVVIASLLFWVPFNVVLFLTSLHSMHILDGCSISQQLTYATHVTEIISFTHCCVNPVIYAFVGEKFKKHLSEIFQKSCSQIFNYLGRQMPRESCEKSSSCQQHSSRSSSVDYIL
For the compound `CCC(NS(=O)(=O)c1ccc(NC(=O)c2ccccc2C)c(C)c1)C1CCNCC1` (stereo not shown) [Compound 223A, 2-methyl-N-(2-methyl-4-(N-(1-(piperidin-4-yl)propyl)sulfamoyl)phenyl)benzamide hydrochloride], the IC50 was 73 nM.
The same measure, in the same setting: the value for `Cc1ccccc1CNc1ccc(S(=O)(=O)N[C@H](C)C2CCN(C)CC2)cc1C` [Compound 229, (R)-3-methyl-4-((2-methylbenzyl)amino)-N-(1-(1-methylpiperidin-4-yl)ethyl)benzenesulfonamide] was over 100000 nM.
Same read-out and setting: the value for `Cc1cc(S(=O)(=O)N[C@H](C)C2CCN(C)CC2)ccc1NC(=O)c1ccc(Cl)cc1C` [Compound 273A, (R)-4-chloro-2-methyl-N-(2-methyl-4-(N-(1-(1-methylpiperidin-4-yl)ethyl)sulfamoyl)phenyl) benzamide hydrochloride] was 1 nM; that for `Cc1ccccc1C(=O)Nc1ccc(S(=O)(=O)NC(C)C2CCCN(C(=O)CNC(=O)OC(C)(C)C)C2)c2ccccc12` (single isomer, unassigned) [Compound 155B, tert-butyl (2-(3-(1-(4-(2-methylbenzamido)naph-thalene-1-sulfonamido)ethyl)piper-idin-1-yl)-2-oxoethyl)carbamate] was over 10000 nM; that for `Cc1ccccc1C(=O)Nc1ccc(S(=O)(=O)N[C@H](C)C2CCN(C(=O)OC(C)(C)C)CC2)cc1C#N` [Compound 193, (R)-tert-butyl 4-(1-(3-cyano-4-(2-methylbenzamido)phenylsulfonamido)ethyl) piperidine-1-carboxylate] was over 10000 nM.
On to `CC(NS(=O)(=O)c1ccc2[nH]c(=O)cnc2c1)C1CC2CCC1CC2` (stereo not shown) [Compound 136, N-(1-(bicyclo[2.2.2]octan-2-yl)ethyl)-2-oxo-1,2-dihydroquinoxaline-6-sulfonamide], for which the IC50 is over 10000 nM.
Same read-out and setting: the value for `Cc1ccccc1C(=O)Nc1ccc(S(=O)(=O)NC(=O)c2cccc(N(C)C)c2)c2ccccc12` [Compound 10, N-(4-(N-(3-(dimethylamino)benzoyl)sulfamoyl)naphthalen-1-yl)-2-methylbenzamide] was over 10000 nM; that for `Cc1ccccc1C(=O)Nc1ccc(S(=O)(=O)N[C@H](C)C2CCN(C)CC2)c(C)c1Cl` [Compound 308, (R)-N-(2-chloro-3-methyl-4-(N-(1-(1-methylpiperidin-4-yl)ethyl)sulfamoyl)phenyl)-2-methylbenzamide] was over 100000 nM.
Take `CCCC(=O)N1CCC(NS(=O)(=O)c2ccc(-c3nc4ccccc4[nH]3)cc2)CC1` [Compound 106, 4-(1H-benzo[d]imidazol-2-yl)-N-(1-butyrylpiperidin-4-yl)benzenesulfonamide]: it took 1140 nM to reach half-maximal inhibition (IC50).
On the same count and under the same terms, the value for `Cc1ccccc1C(=O)Nc1ccc(S(=O)(=O)NC(C)C2CCN(C(=O)OC(C)(C)C)C2)c2ccccc12` (stereo not shown) [Compound 65, tert-butyl 3-(1-(4-(2-methylbenzamido)naph-thalene-1-sulfonamido)ethyl)pyr-rolidine-1-carboxylate] was 1100 nM; that for `Cc1ccccc1C(=O)Nc1ccc(S(=O)(=O)N[C@H](C)C2CCN(C)CC2)c(F)c1C` [Compound 278, (R)-N-(3-fluoro-2-methyl-4-(N-(1-(1-methylpiperidin-4-yl)ethyl)sulfamoyl)phenyl)-2-methylbenzamide hydrochloride] was 6 nM; that for `Cc1ccccc1C(=O)Nc1ccc(S(=O)(=O)NC(C)C2CCCN(C(=O)CN)C2)c2ccccc12` (single isomer, unassigned) [Compound 156B, N-(4-(N-(1-(1-(2-aminoacetyl)piperidin-3-yl)ethyl)sulfamoyl)naph-thalen-1-yl)-2-methylbenzamide] was over 10000 nM.
Compound `Cc1cc(S(=O)(=O)NC(C)C2CC3CCC2CC3)ccc1NC(=O)c1ccccc1C` (stereo not shown) [Compound 162, N-(4-(N-(1-(bicyclo[2.2.2]octan-2-yl)ethyl)sulfamoyl)-2-methylphenyl)-2-methylbenzamide] yielded a half-inhibitory concentration (IC50) of 5 nM.
Still for that read-out and setting: as for `Cc1cc(S(=O)(=O)NC(C)C2CCOCC2)ccc1NC(=O)c1ccccc1C` (stereo not shown) [Compound 239, 2-methyl-N-(2-methyl-4-(N-(1-(tetrahydro-2H-pyran-4-yl)ethyl)sulfamoyl)phen-yl)benzamide], the figure is 843 nM; as for `Cc1cc(S(=O)(=O)N[C@H](C)C2CCN(C)CC2)ccc1NC1(c2ccccc2)COC1` [Compound 299, (R)-3-methyl-N-(1-(1-methylpiperidin-4-yl)ethyl)-4-((3-phenyloxetan-3-yl)amino) benzene-sulfonamide], over 100000 nM; as for `Cc1ccccc1C(=O)Nc1cc(C)c(S(=O)(=O)N[C@H](C)C2CCN(C)CC2)cc1F` [Compound 303, (R)-N-(2-fluoro-5-methyl-4-(N-(1-(1-methylpiperidin-4-yl)ethyl)sulfamoyl)phenyl)-2-methylbenzamide hydrochloride], 9 nM.
In turn, `CC(=O)NC1CCc2cc(S(=O)(=O)NC(C)C3CCCCC3)ccc21` (stereo not shown) [Compound 87, N-(5-(N-(1-cyclohexylethyl)sulfam-oyl)-2,3-dihydro-1H-inden-1-yl)acetamide] returned an IC50 of over 10000 nM.
`Cc1ccccc1C(=O)Nc1ccc(S(=O)(=O)N[C@H](C)C2CCNCC2)c(F)c1C` [Compound 177A, (R)-N-(3-fluoro-2-methyl-4-(N-(1-(piperidin-4-yl)ethyl)sulfamoyl)phen-yl)-2-methylbenzamide, hydrochloride]: the IC50 was found to be 46 nM.
For `CCCC(=O)N1CCC(NS(=O)(=O)c2ccc(Nc3ncnc4ccccc34)cc2)CC1` [Compound 120, N-(1-butyrylpiperidin-4-yl)-4-(quinazolin-4-ylamino)benzenesulfon-amide], the IC50 was over 10000 nM.
`Cc1cc(S(=O)(=O)N[C@H](C)C2CCNCC2)ccc1NC(=O)c1cncs1` [Compound 252A, (R)-N-(2-methyl-4-(N-(1-(piperidin-4-yl)ethyl)sulfamoyl)phenyl)thiazole-5-carboxamide hydrochloride] registered an IC50 of over 100000 nM.
Compound `COc1cc(NC(=O)c2ccccc2C)c(C)cc1S(=O)(=O)NC(C)C1CC2CCC1CC2` (stereo not shown) [Compound 184, N-(4-(N-(1-(bicyclo[2.2.2]octan-2-yl)ethyl)sulfamoyl)-5-methoxy-2-methylphenyl)-2-methylbenzamide] displayed an IC50 of 16 nM.
Same read-out and setting: the value for `CCCC(=O)N1CCC(NS(=O)(=O)c2ccc(Nc3nccc4ccccc34)c3ccccc23)CC1` [Compound 114, N-(1-butyrylpiperidin-4-yl)-4-(isoquinolin-1-ylamino)naphthalene-1-sulfonamide] was over 10000 nM; that for `CCCN1CCN(c2c(F)cccc2NS(=O)(=O)c2ccc(NC(=O)c3ccccc3C)c3ccccc23)CC1` [Compound 92, N-(4-(N-(3-fluoro-2-(4-propylpiperazin-1-yl)phenyl)sulfamoyl)naphthalen-1-yl)-2-methylbenzamide] was over 10000 nM.
Still for that read-out and setting: as for `Cc1ccccc1C(=O)Nc1ccc(S(=O)(=O)N[C@H](C)C2CCN(C(=O)OC(C)(C)C)CC2)c(C(F)(F)F)c1` [Compound 188, (R)-tert-butyl 4-(1-(4-(2-methylbenzamido)-2-(trifluoromethyl)phenyl-sulfonamido)ethyl)piper-idine-1-carboxylate], the figure is 302 nM; as for `COC(=O)CN1CCC([C@@H](C)NS(=O)(=O)c2ccc(NC(=O)c3ccccc3C)c(C)c2)CC1` [Compound 248, methyl(R)-2-(4-(1-((3-methyl-4-(2-methylbenzamido)phenyl)sulfonamido)ethyl)piperidin-1-yl)acetate], 105 nM; as for `CCCC(=O)NC12CC(NS(=O)(=O)c3ccc(NC(=O)c4ccccc4C)c4ccccc34)(C1)C2` [Compound 43, N-(4-(N-(3-butyramidobicyclo[1.1.1]pentan-1-yl)sulfamoyl)naphthalen-1-yl)-2-methylbenzamide], over 10000 nM.
Compound `C[C@H](N)C(=O)N1CCC(NS(=O)(=O)c2ccc(-c3nc4ccccc4[nH]3)cc2)CC1` [Compound 104, (S)-N-(1-(2-aminopropanoyl)piperi-din-4-yl)-4-(1H-benzo[d]imidazol-2-yl)benzenesulfonamide] showed an IC50 of 258 nM.
On the same count and under the same terms, as for `COc1cc(NC(=O)c2ccccc2C)c(C)cc1S(=O)(=O)N[C@H](C)C1CCN(C)CC1` [Compound 298, (R)-N-(5-methoxy-2-methyl-4-(N-(1-(1-methylpiperidin-4-yl)ethyl)sulfamoyl)phenyl)-2-methylbenzamide], the figure is 17 nM; as for `Cc1ccccc1C(=O)Nc1ccc(S(=O)(=O)NC(C)CC2CCN(C(=O)OC(C)(C)C)CC2)c2ccccc12` (stereo not shown) [Compound 127, tert-butyl 4-(2-(4-(2-methylbenzamido)naphthalene-1-sulfonamido)propyl) piperidine-1-carboxylate], 575 nM; as for `Cc1ccccc1C(=O)Nc1ccc(S(=O)(=O)N[C@H](C)C2CCN(C(=O)OC(C)(C)C)CC2)cc1Br` [Compound 191, (R)-tert-butyl 4-(1-(3-bromo-4-(2-methylbenzamido)phen-ylsulfonamido)ethyl)pi-peridine-1-carboxylate], over 10000 nM.
On the same count and under the same terms, as for `Cc1cc(S(=O)(=O)NC(C)(C)C2CCN(C)CC2)ccc1NC(=O)c1ccccc1C` [Compound 291, 2-methyl-N-(2-methyl-4-(N-(2-(1-methylpiperidin-4-yl)propan-2-yl)sulfamoyl)phenyl) benzamide], the figure is 245 nM; as for `O=S(=O)(NC1CCCCC1)c1ccc(-c2nc3ccccc3[nH]2)cc1` [Compound 108, 4-(1H-benzo[d]imidazol-2-yl)-N-cyclohexylbenzenesulfon-amide], over 10000 nM.
Same read-out and setting: as for `COc1ccccc1C(C)NS(=O)(=O)c1ccc(NC(=O)c2ccccc2C)c2ccccc12` (stereo not shown) [Compound 51, N-(4-(N-(1-(2-methoxyphenyl)ethyl)sul-famoyl)naphthalen-1-yl)-2-methylbenzamide], the figure is over 10000 nM.

The assay is the same for the next values; noted with them: read-out: Tango Assay IC50, Inhibition of CCR8 Tango cell in vitro.
As for `CCCC(=O)N1CCCC(C(C)NS(=O)(=O)c2ccc(NC(=O)c3ccccc3C)c3ccccc23)C1` (stereo not shown) [Compound 16, N-(4-(N-(1-(1-butyrylpiperidin-3-yl)ethyl)sulfamoyl)naph-thalen-1-yl)-2-methylbenzamide], the IC50 worked out at 500 nM.

Source of the values: patent US12552753B2, “Methods and compositions for targeting Tregs using CCR8 inhibitors” (Nanjing Immunophage Biomedical Co., Ltd., priority 2020, dated 2026).
